Results taken from patent publication US12109176B1, “Effect of glycerol on biofilm forming bacteria and fungi that changes the microbes sensitivity to pro and anti-biofilm non-toxic, non-bonded plasma amino acids and amino acid derivatives” (priority 2023, dated 2024).
Entries after “also recorded” stand apart in the source; their conditions may differ.

What was measured:
[1] = tested on: bacterial and fungal biofilm; assay: In vitro testing on bacterial and fungal biofilm (assay not told apart); format: cell-based; conditions: for effect on bacterial and fungal biofilm (in words): in vitro testing; for concentration of maximum (ideal) antibiofilm effect: tested on its own, without glycerol
Experimental: (§1) Two types of biofilm assays were performed: an inhibition assay and a disruption assay. The inhibition assay assesses the compound's ability to prevent biofilm development, while the disruption assay assesses the compound's ability to break up an existing mature biofilm.
(§2) All bacterial biofilm solutions were prepared in Tryptic Soy Broth (TSB), supplemented with 1% glucose (henceforth referred to as TSB-G). All subsequent procedures were performed in a manner that maintained sterility. A solution of each amino acid or an amino acid derivative to be tested was prepared in weight to volume concentrations ranging from 0.1-5.0%. Amino acids and amino acid derivatives were also tested in combinations. Compound solutions were homogenized with gentle agitation in the dark (4° C., 24 hours) before use.
(§3) 32 Amino acids and 2 amino acid derivatives of the amino acid serine that occur freely in human blood were tested. […] 31 of the 32 amino acids that were tested were the L-Isomers. Glycine has no stereoisomers. The 2 amino acid derivatives, ethanolamine and phosphoethanolamine were also tested. All biofilm assays were performed using 384-well non-tissue culture-treated polystyrene plates. The fungal species tested are as follows: Candida albicans, Candida guilliermondii, Candida parapsilosis, Candida glabrata, Candida tropicalis and Candida dubliniensis. The bacterial species tested are as follows: Staphylococci (standard wild type and methicillin-resistant strain USA300), Escherichia coli, Pseudomonas aeruginosa and Staphylococcus epidermidis.
(§4) Fungal strains were streaked on Yeast Peptone Dextrose (YPD) agar plates and incubated at 30° C. for 48 hours. A single colony from each strain to be tested was inoculated into YPD broth and grown for 12 hours at 30° C., shaking at 225 rpm. […] The cells were allowed to adhere to the plate for 90 minutes at 37° C. with shaking (350 rpm). […] The plate was further incubated for 24 hours at 37° C. with shaking (350 rpm). Media was carefully aspirated and the biofilm was measured by optical density at 600 nm. […] The cells were allowed to adhere to the plate for 90 minutes at 37° C. with shaking (350 rpm). […] The plate was further incubated for 24 hours at 37° C. with shaking (350 rpm). […] The plate was further incubated for 24 hours at 37° C. with shaking (350 rpm). Media was carefully aspirated, and the biofilm was measured by optical density at 600 nm.
(§5) Bacterial strains were streaked on Blood Agar plates (5% sheep blood in Tryptic Soy Broth) and incubated at 37° C. for 24 hours. A single colony from each strain to be tested was inoculated in a TSB broth and grown for 12 hours, at 37° C. with shaking (225 rpm). For the bacterial biofilm inhibition assays, 1 μL of saturated overnight cell culture was added to either 80 μL of TSB-G, or TSB-G supplemented with the amino acid compound solution to be tested, in a 384-well plate. The cells were allowed to adhere to the plate for 60 minutes at 37° C. without shaking. The media was carefully aspirated and 80 μL of TSB-G, or TSB-G supplemented with the amino acid compound solution was added to the plate. The plate was further incubated for 24 hours at 37° C. without shaking. Media was carefully aspirated and the biofilm was measured by optical density at 600 nm. Eight or twelve replicates were performed for each tested condition and the reported values are normalized to the control (TSB-G media only). For the bacterial biofilm disruption assays, 80 µL of TSB-G was added to the plate, along with 1 μL of overnight cell culture. The cells were allowed to adhere to the plate for 60 minutes at 37° C. with no shaking. The media was carefully aspirated and 80 μL of TSB-G was added to the plate. The plate was further incubated for 24 hours at 37° C. with no shaking. Media was carefully aspirated from the mature biofilm and 80 μL of TSB-G, or TSB-G supplemented with the amino acid to be tested, was gently added to the plate.

[2] = tested on: fungal biofilm (C. albicans); assay: Fungal biofilm inhibition assay; format: cell-based, Candida albicans
Experimental: as §1, §2, §3, §4

[3] = tested on: bacterial (S. aureus) biofilm and fungal biofilm (C. albicans); assay: Biofilm inhibition assay, bacterial and fungal taken together; format: cell-based
fungal biofilm = assay: In vitro testing on fungal biofilm (inhibition and/or disruption); format: cell-based; conditions: in vitro testing
Experimental: as §1, §2, §3, §4

[4] = tested on: fungal biofilm (C. albicans); assay: Fungal biofilm disruption assay; format: cell-based, Candida albicans
Experimental: as §1, §2, §3, §4

[5] = tested on: bacterial (S. aureus) biofilm and fungal biofilm (C. albicans); assay: Biofilm disruption assay, bacterial and fungal taken together; format: cell-based
Experimental: as §1, §2, §3, §4, §5

[6] = tested on: bacterial (S. aureus) biofilm; assay: Bacterial biofilm disruption assay; format: cell-based, Staphylococcus aureus
Experimental: as §1, §2, §3
Bacterial strains were streaked on Blood Agar plates (5% sheep blood in Tryptic Soy Broth) and incubated at 37° C. for 24 hours. A single colony from each strain to be tested was inoculated in a TSB broth and grown for 12 hours, at 37° C. with shaking (225 rpm). For the bacterial biofilm inhibition assays, 1 μL of saturated overnight cell culture was added to either 80 μL of TSB-G, or TSB-G supplemented with the amino acid compound solution to be tested, in a 384-well plate. The cells were allowed to adhere to the plate for 60 minutes at 37° C. without shaking. The media was carefully aspirated and 80 μL of TSB-G, or TSB-G supplemented with the amino acid compound solution was added to the plate. The plate was further incubated for 24 hours at 37° C. without shaking. Media was carefully aspirated and the biofilm was measured by optical density at 600 nm. Eight or twelve replicates were performed for each tested condition and the reported values are normalized to the control (TSB-G media only). For the bacterial biofilm disruption assays, 80 µL of TSB-G was added to the plate, along with 1 μL of overnight cell culture. The cells were allowed to adhere to the plate for 60 minutes at 37° C. with no shaking. The media was carefully aspirated and 80 μL of TSB-G was added to the plate. The plate was further incubated for 24 hours at 37° C. with no shaking. Media was carefully aspirated from the mature biofilm and 80 μL of TSB-G, or TSB-G supplemented with the amino acid to be tested, was gently added to the plate. The plate was further incubated for 24 hours at 37° C. without shaking. Media was aspirated and the biofilm was measured by optical density at 600 nm. Twelve replicates were performed for each tested condition and the reported values are normalized to the control (TSB-G media only).

bacterial biofilm = assay: In vitro testing on bacterial biofilm (inhibition and/or disruption); format: cell-based; conditions: in vitro testing
[7] = tested on: bacterial (S. aureus) biofilm; assay: Bacterial biofilm inhibition assay; format: cell-based, Staphylococcus aureus
[8] = Table F, in the presence of a sufficient concentration of glycerol
[9] = Table D, bacterial and fungal biofilm

N[C@@H](CC(=O)O)C(=O)O [Aspartic Acid, L-aspartic acid]
ideal concentration for antibiofilm effect ([1]; in the absence of glycerol on in vitro testing): 0.5 g %
effect on bacterial and fungal biofilm (in words) [1]: very active against both bacterial and fungal biofilm
effect on bacterial and fungal biofilm (in words) ([1]; listed as Aspartic acid): strong effect on biofilm-forming bacteria and fungi in reducing biofilm formation
concentration of maximum (ideal) antibiofilm effect [1]: 0.5%
Reduce or Inhibit F Biofilm (squares: Inhibition Biofilm Assay) ([2]; Table D, 0.1 to 5.0%): ▪▪ (Two squares [ie. ▪▪] signifies a major effect (greater than about 50%), on the Inhibition Biofilm Assay)
Reduce or Inhibit F Biofilm (squares: Inhibition Biofilm Assay) [2, 8]: ▪▪ (Two squares [ie. ▪▪] signifies a major effect (greater than about 50%), on the Inhibition Biofilm Assay)
Reduce Both (squares: Inhibition Biofilm Assay) [3, 9]: ▪▪ (Two squares [ie. ▪▪] signifies a major effect (greater than about 50%), on the Inhibition Biofilm Assay)
Reduce Both (squares: Inhibition Biofilm Assay) [3, 8]: ▪▪ (Two squares [ie. ▪▪] signifies a major effect (greater than about 50%), on the Inhibition Biofilm Assay)
effect on fungal biofilm (in words) (fungal biofilm): antifungal biofilm effects
Reduce or Inhibit F Biofilm (dots: Disruption Biofilm Assay) ([4]; Table D, 0.1 to 5.0%): ●● (Two dots [ie. ●●] signifies a major effect (greater than about 50%), on the Disruption Biofilm Assay)
Reduce or Inhibit F Biofilm (dots: Disruption Biofilm Assay) [4, 8]: ●● (Two dots [ie. ●●] signifies a major effect (greater than about 50%), on the Disruption Biofilm Assay)
Reduce Both (dots: Disruption Biofilm Assay) [5, 9]: ●● (Two dots [ie. ●●] signifies a major effect (greater than about 50%), on the Disruption Biofilm Assay)
Reduce Both (dots: Disruption Biofilm Assay) [5, 8]: ●● (Two dots [ie. ●●] signifies a major effect (greater than about 50%), on the Disruption Biofilm Assay)
Reduce or Inhibit B Biofilm (dots: Disruption Biofilm Assay) ([6]; Table D, 0.1 to 5.0%): ●● (Two dots [ie. ●●] signifies a major effect (greater than about 50%), on the Disruption Biofilm Assay)
Reduce or Inhibit B Biofilm (dots: Disruption Biofilm Assay) [6, 8]: ●● (Two dots [ie. ●●] signifies a major effect (greater than about 50%), on the Disruption Biofilm Assay)
effect on bacterial biofilm (in words) (bacterial biofilm): antibacterial biofilm effect
Reduce or Inhibit B Biofilm (squares: Inhibition Biofilm Assay) ([7]; Table D, 0.1 to 5.0%): ▪▪ (Two squares [ie. ▪▪] signifies a major effect (greater than about 50%), on the Inhibition Biofilm Assay)
Reduce or Inhibit B Biofilm (squares: Inhibition Biofilm Assay) [7, 8]: ▪▪ (Two squares [ie. ▪▪] signifies a major effect (greater than about 50%), on the Inhibition Biofilm Assay)

N[C@@H](CS)C(=O)O [Cysteine, L-cysteine]
effect on bacterial and fungal biofilm (in words) [1]: potent antibiofilm effect; also recorded: strong antibiofilm effect; also recorded: activity against both bacterial and fungal biofilm
concentration of maximum (ideal) antibiofilm effect [1]: 0.5%
Reduce or Inhibit F Biofilm (squares: Inhibition Biofilm Assay) ([2]; Table D, 0.1 to 5.0%): ▪▪ (Two squares [ie. ▪▪] signifies a major effect (greater than about 50%), on the Inhibition Biofilm Assay)
Reduce or Inhibit F Biofilm (squares: Inhibition Biofilm Assay) [2, 8]: ▪▪ (Two squares [ie. ▪▪] signifies a major effect (greater than about 50%), on the Inhibition Biofilm Assay)
Reduce Both (squares: Inhibition Biofilm Assay) [3, 9]: ▪▪ (Two squares [ie. ▪▪] signifies a major effect (greater than about 50%), on the Inhibition Biofilm Assay)
Reduce Both (squares: Inhibition Biofilm Assay) [3, 8]: ▪▪ (Two squares [ie. ▪▪] signifies a major effect (greater than about 50%), on the Inhibition Biofilm Assay)
effect on fungal biofilm (in words) (fungal biofilm): antifungal biofilm effects
Reduce or Inhibit F Biofilm (dots: Disruption Biofilm Assay) ([4]; Table D, 0.1 to 5.0%): ●● (Two dots [ie. ●●] signifies a major effect (greater than about 50%), on the Disruption Biofilm Assay)
Reduce or Inhibit F Biofilm (dots: Disruption Biofilm Assay) [4, 8]: ●● (Two dots [ie. ●●] signifies a major effect (greater than about 50%), on the Disruption Biofilm Assay)
Reduce Both (dots: Disruption Biofilm Assay) [5, 9]: ●● (Two dots [ie. ●●] signifies a major effect (greater than about 50%), on the Disruption Biofilm Assay)
Reduce Both (dots: Disruption Biofilm Assay) [5, 8]: ●● (Two dots [ie. ●●] signifies a major effect (greater than about 50%), on the Disruption Biofilm Assay)
Reduce or Inhibit B Biofilm (dots: Disruption Biofilm Assay) ([6]; Table D, 0.1 to 5.0%): ●● (Two dots [ie. ●●] signifies a major effect (greater than about 50%), on the Disruption Biofilm Assay)
Reduce or Inhibit B Biofilm (dots: Disruption Biofilm Assay) [6, 8]: ●● (Two dots [ie. ●●] signifies a major effect (greater than about 50%), on the Disruption Biofilm Assay)
effect on bacterial biofilm (in words) (bacterial biofilm): antibacterial biofilm effect
Reduce or Inhibit B Biofilm (squares: Inhibition Biofilm Assay) ([7]; Table D, 0.1 to 5.0%): ▪▪ (Two squares [ie. ▪▪] signifies a major effect (greater than about 50%), on the Inhibition Biofilm Assay)
Reduce or Inhibit B Biofilm (squares: Inhibition Biofilm Assay) [7, 8]: ▪▪ (Two squares [ie. ▪▪] signifies a major effect (greater than about 50%), on the Inhibition Biofilm Assay)
